{"source": "patent US8680367B2", "about": "“Method to prime plants in order to increase their pathogen resistance” (priority 2004, dated 2014)", "system": "callose deposition", "experiment": "Callose deposition in Arabidopsis after Peronospora parasitica infection", "type": "in vivo", "conditions": "positive control plants treated with BABA", "protocol": "This is represented by the disease index on the Y axis. […] Resistance assays were performed as described previously (Plant Cell 1996, 8, 1225-1237; Plant cell 1998, 10, 1571-1580). B. KO of RKS4 (rks4-1; increased expression of N-terminus, see FIG. 4) also increases resistance to Peronospora parasitica, although less than the positive control induced with β-aminobutyric acid (BABA). Plants were scored using an arbitrary scale I-IV, in which I means normal to very slight symptoms and IV means severe symptoms to death. C. […] Both tests were performed as described in (Plant Cell., 2005, 17, 987-999).\nCallose deposition was observed on Arabidopsis leaves after infection with Hyaloperonospora parasitica essentially as described by Ton et al. (Plant Cell (2005) 17(3):987-999).", "data": [{"compound": "CC(N)CC(=O)O", "note": "(stereo not drawn) [BABA, β-aminobutyric acid]", "values": [{"measurement": "Callose deposition upon treatment", "value": "increased"}]}]}
